Structures can show the parent of a compound that is named as a salt.
System: LPS-induced TNF-α release in peripheral blood mononuclear cells (PBMCs)
Test: In vitro determination of PDE4 inhibitory activity in the PBMCs assay (LPS-induced TNF-α release)
Format: cell-based, human
Settings: PBMC; human PBMCs, LPS 3 ng/ml, 18 hours, TNF-α by ELISA; read-out: PDE4 inhibition (IC50, 50% inhibition of LPS-induced TNF-α release)
Procedure: The assay, which is based on the known inhibitory activity exerted by PDE4 inhibitors on the lipopolyshaccarides (LPS)-induced tumour necrosis factor-alpha (TNF-α release in peripheral blood mononuclear cells (PBMCs), was performed according to a method previously described (Hatzelmann A et al., J. Pharmacol. Exp. Ther., 2001; 297:267-279; and Draheim R et al., J. Pharmacol. Exp. Ther., 2004; 308:555-563, which are incorporated herein by reference in their entireties). Cryopreserved human PBMCs, (100 l/well) were incubated in 96-well plates (10^5 cells/well), for 30 minutes, in the presence or absence (50 microl) of the test compounds whose concentrations ranged from 10^−12 M to 10^−6 M or from […] to 10^−7 M. Subsequently, LPS (3 ng/ml) was added.
After 18 hours of incubation at 37° C. in a humidified incubator under an atmosphere of 95% air and 5% CO2, culture medium was collected and TNF-α measured by ELISA. The results of the tested compounds, representatives of the invention, expressed as mean±95% confidence limits of the molar concentration of the test compound producing 50% inhibition of LPS-induced TNF-α release (IC50) are shown in the following Table: […]

Compound	IC50 [nM]
O=C(O)c1cccc(S(=O)(=O)N2CCSC2C(=O)O[C@@H](Cc2c(Cl)c[n+]([O-])cc2Cl)c2ccc(OC(F)F)c(OCC3CC3)c2)c1 (single isomer, unassigned) [Compound 75, 4-((S)-2-((S)-3-(3-carboxyphenylsulfonyl)thiazolidine-2-carbonyloxy)-2-(3-(cyclopropylmethoxy)-4-(difluoromethoxy)phenyl)ethyl)-3,5-dichloropyridine 1-oxide or 4-((S)-2-((R)-3-(3-carboxyphenylsulfonyl)thiazolidine-2-carbonyloxy)-2-(3-(cyclopropylmethoxy)-4-(difluoromethoxy)phenyl)ethyl)-3,5-dichloropyridine 1-oxide]	0.1 to 1
O=C(OCCN1CCOCC1)c1cccc(S(=O)(=O)N2CCSC2C(=O)O[C@@H](Cc2c(Cl)c[n+]([O-])cc2Cl)c2ccc(OC(F)F)c(OCC3CC3)c2)c1 (single isomer, unassigned) [Compound 133, 3,5-dichloro-4-((S)-2-(3-(cyclopropylmethoxy)-4-(difluoromethoxy)phenyl)-2-((S)-3-(3-((2-morpholinoethoxy)carbonyl)phenylsulfonyl)thiazolidine-2-carbonyloxy)ethyl)pyridine 1-oxide or 3,5-dichloro-4-((S)-2-(3-(cyclopropylmethoxy)-4-(difluoromethoxy)phenyl)-2-((R)-3-(3-((2-morpholinoethoxy)carbonyl)phenylsulfonyl)thiazolidine-2-carbonyloxy)ethyl)pyridine 1-oxide]	< 0.1
CN(C)S(=O)(=O)c1cccc(S(=O)(=O)N2CCCC2C(=O)O[C@@H](Cc2c(Cl)c[n+]([O-])cc2Cl)c2ccc(OC(F)F)c(OCC3CC3)c2)c1 (stereo in doubt) [Compound 238, 3,5-dichloro-4-((S)-2-(3-(cyclopropylmethoxy)-4-(difluoromethoxy)phenyl)-2-((S)-1-(3-(N,N-dimethylsulfamoyl)phenylsulfonyl)pyrrolidine-2-carbonyloxy)ethyl)pyridine 1-oxide]	0.1 to 1
Cc1noc2ncc(S(=O)(=O)N3CCSC3C(=O)O[C@@H](Cc3c(Cl)c[n+]([O-])cc3Cl)c3ccc(OC(F)F)c(OCC4CC4)c3)cc12 (stereo in doubt) [Compound 239, 3,5-dichloro-4-((S)-2-(3-(cyclopropylmethoxy)-4-(difluoromethoxy)phenyl)-2-((S)-3-(3-methylisoxazolo[5,4-b]pyridin-5-ylsulfonyl)thiazolidine-2-carbonyloxy)ethyl)pyridine 1-oxide]	< 0.1
Cc1nn(C)c2ncc(S(=O)(=O)N3CCSC3C(=O)O[C@@H](Cc3c(Cl)c[n+]([O-])cc3Cl)c3ccc(OC(F)F)c(OCC4CC4)c3)cc12 (stereo in doubt) [Compound 240, 3,5-dichloro-4-((S)-2-(3-(cyclopropylmethoxy)-4-(difluoromethoxy)phenyl)-2-((S)-3-(1,3-dimethyl-1H-pyrazolo[3,4-b]pyridin-5-ylsulfonyl)thiazolidine-2-carbonyloxy)ethyl)pyridine 1-oxide]	< 0.1
COC(=O)c1cc(CN2CCCC2C(=O)O[C@@H](Cc2c(Cl)c[n+]([O-])cc2Cl)c2ccc(OC(F)F)c(OCC3CC3)c2)oc1C (stereo partly drawn) [Compound 15, 3,5-dichloro-4-((2S)-2-(3-(cyclopropylmethoxy)-4-(difluoromethoxy)phenyl)-2-(1-((4-(methoxycarbonyl)-5-methylfuran-2-yl)methyl)pyrrolidine-2-carbonyloxy)ethyl)pyridine 1-oxide]	1 to 10
CS(=O)(=O)Nc1cc(C(=O)N2CCC[C@H]2C(=O)O[C@@H](Cc2c(Cl)c[n+]([O-])cc2Cl)c2ccc(OC(F)F)c(OCC3CC3)c2)ccc1OCC1CC1 [Compound 19, 3,5-dichloro-4-((S)-2-((S)-1-(4-(cyclopropylmethoxy)-3-(methylsulfonamido)benzoyl)pyrrolidine-2-carbonyloxy)-2-(3-(cyclopropylmethoxy)-4-(difluoromethoxy)phenyl)ethyl)pyridine 1-oxide]	1 to 10
NCc1cccc(C(=O)N2CCS[C@H]2C(=O)O[C@@H](Cc2c(Cl)c[n+]([O-])cc2Cl)c2ccc(OC(F)F)c(OCC3CC3)c2)c1 [Compound 21, 4-((S)-2-((S)-3-(3-(aminomethyl)benzoyl)thiazolidine-2-carbonyloxy)-2-(3-(cyclopropylmethoxy)-4-(difluoromethoxy)phenyl)ethyl)-3,5-dichloropyridine 1-oxide]	1 to 10
NCCc1ccc(C(=O)N2CCSC2C(=O)O[C@@H](Cc2c(Cl)c[n+]([O-])cc2Cl)c2ccc(OC(F)F)c(OCC3CC3)c2)cc1 (stereo partly drawn) [Compound 22, 4-((2S)-2-(3-(4-(2-aminoethyl)benzoyl)thiazolidine-2-carbonyloxy)-2-(3-(cyclopropylmethoxy)-4-(difluoromethoxy)phenyl)ethyl)-3,5-dichloropyridine 1-oxide]	0.1 to 1
Nc1ccc(C(=O)N2CCSC2C(=O)O[C@@H](Cc2c(Cl)c[n+]([O-])cc2Cl)c2ccc(OC(F)F)c(OCC3CC3)c2)cc1 (stereo partly drawn) [Compound 26, 4-((2S)-2-(3-(4-aminobenzoyl)thiazolidine-2-carbonyloxy)-2-(3-(cyclopropylmethoxy)-4-(difluoromethoxy)phenyl)ethyl)-3,5-dichloropyridine 1-oxide]	0.1 to 1
COc1ccc(C(=O)N2CCC[C@H]2C(=O)O[C@@H](Cc2c(Cl)c[n+]([O-])cc2Cl)c2ccc(OC(F)F)c(OCC3CC3)c2)cc1OS(C)(=O)=O [Compound 30, 3,5-dichloro-4-((S)-2-(3-(cyclopropylmethoxy)-4-(difluoromethoxy)phenyl)-2-((S)-1-(4-methoxy-3-(methylsulfonyloxy)benzoyl)pyrrolidine-2-carbonyloxy)ethyl)pyridine-1-oxide]	1 to 10
COc1ccc(C(=O)N2CCSC2C(=O)O[C@@H](Cc2c(Cl)c[n+]([O-])cc2Cl)c2ccc(OC(F)F)c(OCC3CC3)c2)cc1S(=O)(=O)N(C)C (stereo partly drawn) [Compound 32, 3,5-dichloro-4-((2S)-2-(3-(cyclopropylmethoxy)-4-(difluoromethoxy)phenyl)-2-(3-(3-(N,N-dimethylsulfamoyl)-4-methoxybenzoyl)thiazolidine-2-carbonyloxy)ethyl)pyridine 1-oxide]	0.1 to 1
CN(C)Cc1cccc(C(=O)N2CCSC2C(=O)O[C@@H](Cc2c(Cl)c[n+]([O-])cc2Cl)c2ccc(OC(F)F)c(OCC3CC3)c2)c1 (stereo partly drawn) [Compound 34, 3,5-dichloro-4-((2S)-2-(3-(cyclopropylmethoxy)-4-(difluoromethoxy)phenyl)-2-(3-(3-((dimethylamino)methyl)benzoyl)thiazolidine-2-carbonyloxy)ethyl)pyridine 1-oxide]	0.1 to 1
O=C(O[C@@H](Cc1c(Cl)c[n+]([O-])cc1Cl)c1ccc(OC(F)F)c(OCC2CC2)c1)C1SCCN1C(=O)c1cnco1 (stereo partly drawn) [Compound 35, 3,5-dichloro-4-((2S)-2-(3-(cyclopropylmethoxy)-4-(difluoromethoxy)phenyl)-2-(3-(oxazole-5-carbonyl)thiazolidine-2-carbonyloxy)ethyl)pyridine 1-oxide]	< 0.1
O=C(O[C@@H](Cc1c(Cl)c[n+]([O-])cc1Cl)c1ccc(OC(F)F)c(OCC2CC2)c1)[C@@H]1SCCN1C(=O)c1ccc(N2CCS(=O)(=O)CC2)cc1 [Compound 36]	0.1 to 1
NC(=O)c1ccc(C(=O)N2CCS[C@H]2C(=O)O[C@@H](Cc2c(Cl)c[n+]([O-])cc2Cl)c2ccc(OC(F)F)c(OCC3CC3)c2)cc1 [Compound 37, 4-((S)-2-((S)-3-(4-carbamoylbenzoyl)thiazolidine-2-carbonyloxy)-2-(3-(cyclopropylmethoxy)-4-(difluoromethoxy)phenyl)ethyl)-3,5-dichloropyridine 1-oxide]	< 0.1
O=C(O[C@@H](Cc1c(Cl)c[n+]([O-])cc1Cl)c1ccc(OC(F)F)c(OCC2CC2)c1)C1SCCN1C(=O)c1cncs1 (stereo partly drawn) [Compound 38, 3,5-dichloro-4-((2S)-2-(3-(cyclopropylmethoxy)-4-(difluoromethoxy)phenyl)-2-(3-(thiazole-5-carbonyl)thiazolidine-2-carbonyloxy)ethyl)pyridine 1-oxide]	< 0.1
O=C(O[C@@H](Cc1c(Cl)c[n+]([O-])cc1Cl)c1ccc(OC(F)F)c(OCC2CC2)c1)[C@@H]1SCCN1C(=O)c1ccc(CN2CCOCC2)cc1 [Compound 39, 3,5-dichloro-4-((S)-2-(3-(cyclopropylmethoxy)-4-(difluoromethoxy)phenyl)-2-((S)-3-(4-(morpholinomethyl)benzoyl)thiazolidine-2-carbonyloxy)ethyl)pyridine 1-oxide]	0.1 to 1

Same assay, conditions: PBMC; human PBMCs, LPS 3 ng/ml, 18 hours; compounds of formula (II); read-out: PDE4 inhibition (IC50, 50% inhibition of LPS-induced TNF-α release)

Compound	IC50 [nM]
O=C(O[C@@H](Cc1c(Cl)c[n+]([O-])cc1Cl)c1ccc(OC(F)F)c(OCC2CC2)c1)[C@H]1NCCS1 [Compound 6, 3,5-dichloro-4-((S)-2-(3-(cyclopropylmethoxy)-4-(difluoromethoxy)phenyl)-2-((S)-thiazolidine-2-carbonyloxy)ethyl)pyridine 1-oxide hydrochloride]	0.1 to 1
O=C(OC(Cc1c(Cl)c[n+]([O-])cc1Cl)c1ccc(OC(F)F)c(OCC2CC2)c1)C1CNCCO1 (stereo not shown) [Compound 8]	1 to 10
O=C(O[C@@H](Cc1c(Cl)c[n+]([O-])cc1Cl)c1ccc(OC(F)F)c(OCC2CC2)c1)[C@H]1CCCCN1 [Compound 9]	1 to 10
O=C(O[C@@H](Cc1c(Cl)c[n+]([O-])cc1Cl)c1ccc(OC(F)F)c(OCC2CC2)c1)[C@@H]1CSCN1 [Compound 11]	0.1 to 1

Reference: patent publication US9931327B2, “Derivatives of 1-phenyl-2-pyridinyl alkyl alcohols as phosphodiesterase inhibitors” (Chiesi Farmaceutici S.p.A., priority 2011, dated 2018)
